Data: patent US7041131B2, “Bioengineered vascular graft support prostheses” (Organogenesis, Inc., priority 1998, dated 2006)

What was measured:
[1] = tested on: tube supported vein grafts; assay: Isometric tension studies on rings of tube supported vein grafts; set-up: species or system New Zealand male white rabbits; conditions: for EC50: Oryctolagus cuniculus, 672 h, read-out: Sensitivity, -log10(EC50) (converted)
Procedure: (§1) Twenty-nine New Zealand male white rabbits underwent interposition bypass grafting of the right common carotid artery using the reversed ipsilateral jugular vein. In the experimental group (n=15), once the proximal anastomosis was performed, the vein was passed through a collagen tube having dimensions of 4 mm in diameter and 35 to 40 mm in length and the distal anastomosis was then completed. Leaks were repaired and the collagen tube was fashioned to completely cover the vein graft, including both anastomoses. Control animals (n=14) were treated identically but without tube support. One intraoperative death resulted from an unrecognized leak in the mid-segment of a vein graft in the experimental group. Otherwise, there were no other significant complications such as infection or bleeding in either group. […] Postoperatively, the flow rate and intraluminal pressure in vein grafts were measured on either day 3 or 28 (n=5 per group). Vein grafts were harvested on day 3 for assessment of tyrosine phosphorylation by Western blot analysis (n=4 per group), and on day 28 for morphometric measurement (n=5 per group), scanning and transmission electron microscopy (n=5 per group) and isometric tension studies (n=5 per group). On the day of harvest, animals were anesthetized and subsequently sacrificed with an intravenous overdose of barbiturates.
(§2) Vein grafts were sectioned into four 5 mm rings. In the tube supported group, the collagen tube was carefully dissected off and removed to allow unimpeded vessel contraction and relaxation. Each ring was immediately mounted between two stainless steel hooks in 5 ml organ baths containing oxygenated Krebs solution (122 mM NaCl, 4.7 mM KCl, 1 2 mM MgCl2, 2.5 mM CaCl2, 15.4 mM NaHCO3, 1.2 mM KH2PO4 and 5.5 mM glucose, maintained at 37° C. and oxygenated with 95% O2 and 5% CO2), as previously described with some modifications. In brief, following equilibration, the resting tension was adjusted in increments from 0.5 to 1.25 gms and the maximal response to a modified oxygenated Krebs solution containing 60 mM KCl, 66.7 mM NaCl, 1.2 mM MgCl2, 2.5 mM CaCl2, 15.4 mM NaHCO3, 1.2 mM KH2PO4 and 5.5 mM glucose was measured to establish a length-tension relationship. Cumulative dose response curves to the contractile agonists bradykinin (10^−9 to 10^−5 M), norepinephrine (10^−9 to 10^−4 M), and serotonin (10^−9 to 10^−4 M) were performed. Relaxation responses to acetylcholine (10^−8 to 10^−4 M), an endothelium dependent agonist, and nitroprusside (10^−8 to 10^−4 M), an endothelium independent agonist, were assessed on rings precontracted with norepinephrine, at the concentration which produced 80% of maximal contraction. All rings were allowed to re-equilibrate for a minimum of 30 minutes between each experimental run and the same sequence of agonist testing was maintained for all experiments. (All chemicals were obtained from Sigma Chemical Co. (St Louis, Mo.)).
(§3) The concentration for the half maximal response (EC50) was calculated by logistic analysis and the sensitivity is defined as -log10(EC50). In each vein graft, the sensitivity was determined for each vessel ring (4 rings per vein graft) and the mean was taken as the value for that vein graft. Values shown are the mean±s.e.m (n=5 per group). Statistical differences between the tube supported vein grafts and control vein grafts were compared using the unpaired Student's t-test.

control vein grafts = assay: Isometric tension studies on rings of control vein grafts; set-up: species or system New Zealand male white rabbits; conditions: for Sensitivity, -log10(EC50) / EC50: day 28 control vein grafts without tube support, mean±s.e.m, n=5; for EC50: Oryctolagus cuniculus, 672 h, read-out: Sensitivity, -log10(EC50) (converted)
Procedure: as §1, §2, §3

[2] = day 28 tube supported vein grafts, tube removed, mean±s.e.m, n=5

Compound | EC50 [1, 2] [µM] | Sensitivity, -log10(EC50) (control vein grafts) | EC50 (control vein grafts) [µM] | further results
[Cl-].[K+] [KCl] |  |  |  | Contractile force ([1]; 60 mM KCl, tube supported vein grafts): 300 ± 46 mg; Contractile force (control vein grafts; 60 mM KCl, control vein grafts): 280 ± 47 mg
NC[C@H](O)c1ccc(O)c(O)c1 [Norepinephrine, norepinephrine] | 1.1 |  | 1.07 | 
NCCc1c[nH]c2ccc(O)cc12 [Serotonin, serotonin] | 0.407 |  | 0.525 | 

More lines, main results first:

EC50 [1, 2] [µM] | Sensitivity, -log10(EC50) (control vein grafts) | Compound | EC50 (control vein grafts) [µM] | further results
120 | no response | CC(=O)OCC[N+](C)(C)C [Acetylcholine, acetylcholine] |  | Maximal relaxation ([1]; tube supported vein graft rings precontracted with norepinephrine): 64 % of precontracted tension
 | 6.73 ± 0.19 | nitroprusside |  | Sensitivity, -log10(EC50) [1, 2]: 6.46 ± 0.12
